Key:
[1] = test system: spring barley (HORVS); assay: Postemergence greenhouse trial, % visual injury on spring barley; format: in vivo, Hordeum vulgare
Procedure, shortened: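 Greenhouse crops at second to third true leaf stage sprayed postemergence at 187 L/ha with herbicide (g ae/ha) plus safener (g ai/ha) in acetone/DMSO diluted into 1.5% v/v Agri-dex. Injury scored visually versus solvent-blank controls after 20-22 d, 0 (none) to 100% (complete kill); expected mixture effects by Colby's equation.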

[2] = test system: pigweed (AMARE); assay: Postemergence greenhouse trial, % visual injury on pigweed; format: in vivo, Amaranthus retroflexus; settings: for % visual injury, Ob / % visual injury, observed (Ob): AMARE
Procedure, shortened: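 Injury was scored visually (0 = none, 100 = complete kill) 20–22 d after track-sprayer application at 187 L/ha, compared with solvent-sprayed controls. Test plants at the 2–3 true leaf stage; herbicide (g ae/ha) plus cloquintocet-mexyl safener (g ai/ha) in crop-oil-containing spray; expected mixture response by Colby.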

[3] = test system: lambsquarters (CHEAL); assay: Postemergence greenhouse trial, % visual injury on lambsquarters; format: in vivo, Chenopodium album; settings: for % visual injury, Ob / % visual injury, observed (Ob): CHEAL
Procedure, shortened: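 Visual injury, 0 (none) to 100 (complete kill), rated 20-22 d after overhead track-sprayer application at 187 L/ha; Colby's equation gave expected mixture responses. Herbicide (g ae/ha) and cloquintocet-mexyl safener (g ai/ha) diluted in aqueous 1.5% v/v Agri-dex, applied to weeds at 2–3 true leaves.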

[4] = test system: Russian thistle (SASKR); assay: Postemergence greenhouse trial, % visual injury on Russian thistle; format: in vivo, Salsola kali
[5] = test system: bird's-eye speedwell (VERPE); assay: Postemergence greenhouse trial, % visual injury on bird's-eye speedwell; format: in vivo, Veronica persica
Procedure, shortened: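 Herbicide rates g ae/ha, safener (cloquintocet-mexyl) rates g ai/ha; spray carrier 1.5% v/v crop oil concentrate, 187 L/ha, 2nd–3rd leaf stage. Rating: visual % injury at 20-22 d.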

CCCCCC(C)OC(=O)COc1ccc(Cl)c2cccnc12 (stereo not shown) [CQC-m, cloquintocet-mexyl, reference compound]
0%: % visual injury, Ob ([1]; HORVS, 4.375 g/ha, applied alone) | % visual injury, Ob ([1]; HORVS, 8.75 g/ha, applied alone) | % visual injury, Ob ([1]; HORVS, 17.5 g/ha, applied alone) | % visual injury, Ob ([1]; HORVS, 35 g/ha, applied alone) | % visual injury, Ob ([1]; HORVS, 70 g/ha, applied alone) | % visual injury, Ob ([1]; HORVS, compound 0, CQC-m 4.375 g/ha) | % visual injury, Ob ([1]; HORVS, compound 0, CQC-m 8.75 g/ha) | % visual injury, Ob ([1]; HORVS, compound 0, CQC-m 17.5 g/ha) | % visual injury, Ob ([1]; HORVS, compound 0, CQC-m 35 g/ha) | % visual injury, Ob ([1]; HORVS, compound 0, CQC-m 70 g/ha) | % visual injury, Ob ([1]; HORVS, compound 0 g/ha, CQC-m 4.375 g/ha) | % visual injury, Ob ([1]; HORVS, compound 0 g/ha, CQC-m 8.75 g/ha) | % visual injury, Ob ([1]; HORVS, compound 0 g/ha, CQC-m 17.5 g/ha) | % visual injury, Ob ([1]; HORVS, compound 0 g/ha, CQC-m 35 g/ha) | % visual injury, Ob ([1]; HORVS, compound 0 g/ha, CQC-m 70 g/ha) | % visual injury, observed (Ob) ([1]; HORVS, compound 8 0 + CQC-m 4.375 g/ha) | % visual injury, observed (Ob) ([1]; HORVS, compound 8 0 + CQC-m 8.75 g/ha) | % visual injury, observed (Ob) ([1]; HORVS, compound 8 0 + CQC-m 17.5 g/ha) | % visual injury, observed (Ob) ([1]; HORVS, compound 8 0 + CQC-m 35 g/ha) | % visual injury, observed (Ob) ([1]; HORVS, compound 8 0 + CQC-m 70 g/ha) | % visual injury, Ob ([1]; alone, 4.375 g/ha) | % visual injury, Ob ([1]; alone, 8.75 g/ha) | % visual injury, Ob ([1]; alone, 17.5 g/ha) | % visual injury, Ob ([1]; alone, 20 g/ha) | % visual injury, Ob ([1]; alone, 35 g/ha) | % visual injury, Ob ([1]; alone, 40 g/ha) | % visual injury, Ob ([1]; alone, 70 g/ha) | % visual injury, Ob ([1]; alone, 80 g/ha) | % visual injury, Ob ([2]; 4.375 g/ha, applied alone) | % visual injury, Ob ([2]; 8.75 g/ha, applied alone) | % visual injury, Ob ([2]; 17.5 g/ha, applied alone) | % visual injury, Ob ([2]; 35 g/ha, applied alone) | % visual injury, Ob ([2]; 70 g/ha, applied alone) | % visual injury, Ob ([2]; compound 0, CQC-m 4.375 g/ha) | % visual injury, Ob ([2]; compound 0, CQC-m 8.75 g/ha) | % visual injury, Ob ([2]; compound 0, CQC-m 17.5 g/ha) | % visual injury, Ob ([2]; compound 0, CQC-m 35 g/ha) | % visual injury, Ob ([2]; compound 0, CQC-m 70 g/ha) | % visual injury, Ob ([2]; compound 0 g/ha, CQC-m 4.375 g/ha) | % visual injury, Ob ([2]; compound 0 g/ha, CQC-m 8.75 g/ha) | % visual injury, Ob ([2]; compound 0 g/ha, CQC-m 17.5 g/ha) | % visual injury, Ob ([2]; compound 0 g/ha, CQC-m 35 g/ha) | % visual injury, Ob ([2]; compound 0 g/ha, CQC-m 70 g/ha) | % visual injury, observed (Ob) ([2]; safener alone 2.5 g/ha) | % visual injury, observed (Ob) ([2]; safener alone 5 g/ha) | % visual injury, observed (Ob) ([2]; safener alone 10 g/ha) | % visual injury, observed (Ob) ([2]; safener alone 20 g/ha) | pest or weed control at 4.375 g/ha ([2]; Amaranthus retroflexus, post-emergence, alone, 4.375 g/ha, read-out: % visual injury, Ob) | pest or weed control at 8.75 g/ha ([2]; Amaranthus retroflexus, post-emergence, alone, 8.75 g/ha, read-out: % visual injury, Ob) | pest or weed control at 17.5 g/ha ([2]; Amaranthus retroflexus, post-emergence, alone, 17.5 g/ha, read-out: % visual injury, Ob) | pest or weed control at 20 g/ha ([2]; Amaranthus retroflexus, post-emergence, alone, 20 g/ha, read-out: % visual injury, Ob) | pest or weed control at 35 g/ha ([2]; Amaranthus retroflexus, post-emergence, alone, 35 g/ha, read-out: % visual injury, Ob) | pest or weed control at 40 g/ha ([2]; Amaranthus retroflexus, post-emergence, alone, 40 g/ha, read-out: % visual injury, Ob) | pest or weed control at 70 g/ha ([2]; Amaranthus retroflexus, post-emergence, alone, 70 g/ha, read-out: % visual injury, Ob) | pest or weed control at 80 g/ha ([2]; Amaranthus retroflexus, post-emergence, alone, 80 g/ha, read-out: % visual injury, Ob) | % visual injury, Δ ([2]; alone, 35 g/ha) | % visual injury, Ob ([3]; 4.375 g/ha, applied alone) | % visual injury, Ob ([3]; 8.75 g/ha, applied alone) | % visual injury, Ob ([3]; 17.5 g/ha, applied alone) | % visual injury, Ob ([3]; 35 g/ha, applied alone) | % visual injury, Ob ([3]; 70 g/ha, applied alone) | % visual injury, Ob ([3]; compound 0, CQC-m 4.375 g/ha) | % visual injury, Ob ([3]; compound 0, CQC-m 8.75 g/ha) | % visual injury, Ob ([3]; compound 0, CQC-m 17.5 g/ha) | % visual injury, Ob ([3]; compound 0, CQC-m 35 g/ha) | % visual injury, Ob ([3]; compound 0, CQC-m 70 g/ha) | % visual injury, observed (Ob) ([3]; compound 8 0 + CQC-m 4.375 g/ha) | % visual injury, observed (Ob) ([3]; compound 8 0 + CQC-m 8.75 g/ha) | % visual injury, observed (Ob) ([3]; compound 8 0 + CQC-m 17.5 g/ha) | % visual injury, observed (Ob) ([3]; compound 8 0 + CQC-m 35 g/ha) | % visual injury, observed (Ob) ([3]; compound 8 0 + CQC-m 70 g/ha) | pest or weed control at 4.375 g/ha ([3]; Chenopodium album, post-emergence, alone, 4.375 g/ha, read-out: % visual injury, Ob) | pest or weed control at 8.75 g/ha ([3]; Chenopodium album, post-emergence, alone, 8.75 g/ha, read-out: % visual injury, Ob) | pest or weed control at 17.5 g/ha ([3]; Chenopodium album, post-emergence, alone, 17.5 g/ha, read-out: % visual injury, Ob) | pest or weed control at 20 g/ha ([3]; Chenopodium album, post-emergence, alone, 20 g/ha, read-out: % visual injury, Ob) | pest or weed control at 35 g/ha ([3]; Chenopodium album, post-emergence, alone, 35 g/ha, read-out: % visual injury, Ob) | pest or weed control at 40 g/ha ([3]; Chenopodium album, post-emergence, alone, 40 g/ha, read-out: % visual injury, Ob) | pest or weed control at 70 g/ha ([3]; Chenopodium album, post-emergence, alone, 70 g/ha, read-out: % visual injury, Ob) | pest or weed control at 80 g/ha ([3]; Chenopodium album, post-emergence, alone, 80 g/ha, read-out: % visual injury, Ob) | % visual injury, Ob ([4]; SASKR, 4.375 g/ha, applied alone) | % visual injury, Ob ([4]; SASKR, 8.75 g/ha, applied alone) | % visual injury, Ob ([4]; SASKR, 17.5 g/ha, applied alone) | % visual injury, Ob ([4]; SASKR, 35 g/ha, applied alone) | % visual injury, Ob ([4]; SASKR, 70 g/ha, applied alone) | % visual injury, Ob ([4]; SASKR, compound 0, CQC-m 4.375 g/ha) | % visual injury, Ob ([4]; SASKR, compound 0, CQC-m 8.75 g/ha) | % visual injury, Ob ([4]; SASKR, compound 0, CQC-m 17.5 g/ha) | % visual injury, Ob ([4]; SASKR, compound 0, CQC-m 35 g/ha) | % visual injury, Ob ([4]; SASKR, compound 0, CQC-m 70 g/ha) | % visual injury, Ob ([4]; SASKR, compound 0 g/ha, CQC-m 4.375 g/ha) | % visual injury, Ob ([4]; SASKR, compound 0 g/ha, CQC-m 8.75 g/ha) | % visual injury, Ob ([4]; SASKR, compound 0 g/ha, CQC-m 17.5 g/ha) | % visual injury, Ob ([4]; SASKR, compound 0 g/ha, CQC-m 35 g/ha) | % visual injury, Ob ([4]; SASKR, compound 0 g/ha, CQC-m 70 g/ha) | % visual injury, observed (Ob) ([4]; SASKR, compound 8 0 + CQC-m 4.375 g/ha) | % visual injury, observed (Ob) ([4]; SASKR, compound 8 0 + CQC-m 8.75 g/ha) | % visual injury, observed (Ob) ([4]; SASKR, compound 8 0 + CQC-m 17.5 g/ha) | % visual injury, observed (Ob) ([4]; SASKR, compound 8 0 + CQC-m 35 g/ha) | % visual injury, observed (Ob) ([4]; SASKR, compound 8 0 + CQC-m 70 g/ha) | % visual injury, Ob ([4]; alone, 4.375 g/ha) | % visual injury, Ob ([4]; alone, 8.75 g/ha) | % visual injury, Ob ([4]; alone, 17.5 g/ha) | % visual injury, Ob ([4]; alone, 35 g/ha) | % visual injury, Ob ([4]; alone, 70 g/ha) | % visual injury, Ob ([5]; VERPE, compound 0, CQC-m 4.375 g/ha) | % visual injury, Ob ([5]; VERPE, compound 0, CQC-m 8.75 g/ha) | % visual injury, Ob ([5]; VERPE, compound 0, CQC-m 17.5 g/ha) | % visual injury, Ob ([5]; VERPE, compound 0, CQC-m 35 g/ha) | % visual injury, Ob ([5]; VERPE, compound 0, CQC-m 70 g/ha) | % visual injury, Ob ([5]; VERPE, compound 0 g/ha, CQC-m 4.375 g/ha) | % visual injury, Ob ([5]; VERPE, compound 0 g/ha, CQC-m 8.75 g/ha) | % visual injury, Ob ([5]; VERPE, compound 0 g/ha, CQC-m 17.5 g/ha) | % visual injury, Ob ([5]; VERPE, compound 0 g/ha, CQC-m 35 g/ha) | % visual injury, Ob ([5]; VERPE, compound 0 g/ha, CQC-m 70 g/ha) | % visual injury, observed (Ob) ([5]; VERPE, compound 8 0 + CQC-m 4.375 g/ha) | % visual injury, observed (Ob) ([5]; VERPE, compound 8 0 + CQC-m 8.75 g/ha) | % visual injury, observed (Ob) ([5]; VERPE, compound 8 0 + CQC-m 17.5 g/ha) | % visual injury, observed (Ob) ([5]; VERPE, compound 8 0 + CQC-m 35 g/ha) | % visual injury, observed (Ob) ([5]; VERPE, compound 8 0 + CQC-m 70 g/ha) | % visual injury, Ob ([5]; alone, 4.375 g/ha) | % visual injury, Ob ([5]; alone, 8.75 g/ha) | % visual injury, Ob ([5]; alone, 17.5 g/ha) | % visual injury, Ob ([5]; alone, 35 g/ha) | % visual injury, Ob ([5]; alone, 70 g/ha)

Reference: patent publication US9763445B2, “Safened herbicidal compositions comprising a pyridine carboxylic acid herbicide” (Dow AgroSciences, LLC, priority 2014, dated 2017)
